Experimental data from patent publication US9457033B2, “Steroid alkaloids and uses thereof as antimicrobial agents against electron transport-deficient microbes and as potentiators for antimicrobial agents against pathogenic bacteria” (priority 2011, dated 2016).
≈ marks a conversion by molar mass, not a printed value.

Assays:
Format in all cases: cell-based, Staphylococcus aureus
[1] = test system: S. aureus SCV strain NewbouldΔhemB; test: MIC of compounds against SCV; details: for MIC: Staphylococcus aureus, read-out: MIC of Cpd against SCV hemB; for MIC of Cpd against SCV hemB: provided in categories (strong ≦ 0.5; moderate 4-8; low > 8)
S. aureus ATCC 29213 [2] = test: MIC, microdilution in CAMHB 24 h, with or without tomatidine/compound; details: for MIC: Staphylococcus aureus; for Fold (MIC of GEN alone/MIC of GEN with Cpd): gentamicin with 8 μg/ml of Cpd, provided in categories of synergy (1-2 no or mild; 4-16 moderate or strong); for Fold (−TO/+TO): tomatidine at 8 μg/ml
S. aureus ATCC 29213 [3] = test: Checkerboard assay, aminoglycoside and tomatidine; details: for FIC index: aminoglycoside with tomatidine, tomatidine MIC considered 32 μg/ml, values overestimated; for Aminoglycoside MIC: checkerboard; for MIC: Staphylococcus aureus, ATCC29213, checkerboard
Description: This checkerboard protocol (Eliopoulos and Moellering, 1996) was conducted by a microdilution method similar to that use for standard MICs determination. In 96 wells plates, antibiotics were loaded at a 4× concentration (where X is the maximal tested concentration) in well A1 and at a 2× concentration in the others wells of the column 1. Antibiotics were serially diluted 1:1 from the column 2 to column 10. […] Wells A12, B12, […] are positive untreated controls whereas wells […] are negative non-inoculated controls. […] The FIC index was calculated as follow (Eliopoulos and Moellering, 1996): FIC […]/MICB, where A and B are MICs of compounds A and B in combination and where MICA and MICB are the MICs of compound A alone and of compound B alone, respectively, and FICA and FICB are the FICs of compound A and of compound B, respectively.

[4] = ATCC29213, compound alone, read-out: MIC of Cpd against ATCC29213
[5] = ATCC29213, read-out: MIC of Cpd against ATCC29213

Compound: CC(O)[C@H]1CC[C@H]2[C@@H]3CC[C@H]4C[C@@H](O)CC[C@]4(C)[C@H]3CC[C@]12C (stereo in doubt) [Compound 54, pregnane-3,20-diol]
- MIC [1]: > 8 µg/mL
- MIC (S. aureus ATCC 29213 [2]; [4]): > 16 µg/mL
- Fold (MIC of GEN alone/MIC of GEN with Cpd) (S. aureus ATCC 29213 [2]): 1-2 fold

Compound: NCC[C@H](O)C(=O)N[C@@H]1C[C@H](N)[C@@H](O[C@H]2O[C@H](CN)[C@@H](O)[C@H](O)[C@H]2O)[C@H](O)[C@H]1O[C@H]1O[C@H](CO)[C@@H](O)[C@H](N)[C@H]1O [Amikacin, amikacin]
- FIC index (S. aureus ATCC 29213 [3]): ≦0.133
- Aminoglycoside MIC (S. aureus ATCC 29213 [3]; tomatidine 0 μg/ml): 2 µg/mL
- Aminoglycoside MIC (S. aureus ATCC 29213 [3]; tomatidine 0.06 μg/ml): 2 µg/mL
- Aminoglycoside MIC (S. aureus ATCC 29213 [3]; tomatidine 0.12 μg/ml): 0.5 µg/mL
- Aminoglycoside MIC (S. aureus ATCC 29213 [3]; tomatidine 0.25 μg/ml): 0.25 µg/mL
- Aminoglycoside MIC (S. aureus ATCC 29213 [3]; tomatidine 0.5 μg/ml): 0.25 to 0.5 µg/mL
- Aminoglycoside MIC (S. aureus ATCC 29213 [3]; tomatidine 1 μg/ml): 0.25 to 1 µg/mL
- Aminoglycoside MIC (S. aureus ATCC 29213 [3]; tomatidine 2 μg/ml): 0.25 to 1 µg/mL
- Aminoglycoside MIC (S. aureus ATCC 29213 [3]; tomatidine 4 μg/ml): 0.25 µg/mL
- Aminoglycoside MIC (S. aureus ATCC 29213 [3]; tomatidine 8 μg/ml): 0.5 µg/mL
- MIC −TO (S. aureus ATCC 29213 [2]; ATCC 29213, absence of tomatidine): 2 µg/mL (≈ 3.42 µM)
- MIC +TO (S. aureus ATCC 29213 [2]; ATCC 29213, presence of tomatidine at 8 μg/ml): 0.5 µg/mL
- Fold (−TO/+TO) (S. aureus ATCC 29213 [2]; ATCC 29213): 4 fold

Compound: C[C@H]1CC[C@@]2(O[C@H]3C[C@H]4[C@@H]5CC[C@H]6C[C@@H](O)CC[C@]6(C)[C@H]5CC[C@]4(C)[C@H]3[C@@H]2C)N(C=O)C1 [Compound 21, N-formyl tomatidine]
- MIC of Cpd against SCV hemB [1]: >8 µg/mL
- MIC of Cpd against ATCC29213 (S. aureus ATCC 29213 [2]; compound alone): >16 µg/mL
- Fold (MIC of GEN alone/MIC of GEN with Cpd) (S. aureus ATCC 29213 [2]): 1-2 fold

Compound: C[C@H]1CC[C@@]2(NC1)O[C@H]1C[C@H]3[C@@H]4CC[C@H]5C[C@H](O)CC[C@]5(C)[C@H]4CC[C@]3(C)[C@H]1[C@@H]2C.Cl [Compound 23, 3α-hydroxytomatidine hydrochloride Salt]
- MIC of Cpd against SCV hemB [1]: 4 to 8 µg/mL
- MIC of Cpd against ATCC29213 (S. aureus ATCC 29213 [2]; compound alone): >16 µg/mL
- Fold (MIC of GEN alone/MIC of GEN with Cpd) (S. aureus ATCC 29213 [2]): 4-16 fold

Compound: C[C@H]1CC[C@]2(NC1)O[C@H]1C[C@H]3[C@@H]4CC[C@H]5CC(=O)CC[C@]5(C)[C@H]4CC[C@]3(C)[C@H]1[C@@H]2C.Cl [Compound 25, 3-oxotomatidine hydrochloride Salt]
- MIC of Cpd against SCV hemB [1]: ≦0.5 μg/ml
- MIC of Cpd against ATCC29213 (S. aureus ATCC 29213 [2]; compound alone): >16 µg/mL
- Fold (MIC of GEN alone/MIC of GEN with Cpd) (S. aureus ATCC 29213 [2]): 4-16 fold

Compound: C[C@H](CN)CCC[C@@H](C)C1[C@@H](O)C[C@H]2[C@@H]3CC[C@H]4C[C@@H](O)CC[C@]4(C)[C@H]3CC[C@]12C (some centres unmarked) [Compound 26]
- MIC [1]: ≤ 0.5 µg/mL
- MIC (S. aureus ATCC 29213 [2]; [5]): > 16 µg/mL
- Fold (MIC of GEN alone/MIC of GEN with Cpd) (S. aureus ATCC 29213 [2]): 4-16 fold

Compound: CC(=O)[C@H]1CC[C@H]2[C@@H]3CC[C@H]4C[C@@H](O)CC[C@]4(C)[C@H]3CC[C@]12C [Compound 28, Pregnanolone]
- MIC [1]: > 8 µg/mL
- MIC (S. aureus ATCC 29213 [2]; [5]): > 16 µg/mL
- Fold (MIC of GEN alone/MIC of GEN with Cpd) (S. aureus ATCC 29213 [2]): 1-2 fold

Compound: CC(N)[C@H]1CC[C@H]2[C@@H]3CC[C@H]4C[C@@H](O)CC[C@]4(C)[C@H]3CC[C@]12C (stereo partly drawn) [Compound 30a, pregnan-3β-ol-20-amine]
- MIC [1]: > 8 µg/mL
- MIC (S. aureus ATCC 29213 [2]; [4]): > 16 µg/mL
- Fold (MIC of GEN alone/MIC of GEN with Cpd) (S. aureus ATCC 29213 [2]): 1-2 fold

Compound: CC(NCCCN(C)C)[C@H]1CC[C@H]2[C@@H]3CC[C@H]4C[C@@H](O)CC[C@]4(C)[C@H]3CC[C@]12C (stereo partly drawn) [Compound 32, pregnan-3β-ol-20-((N,N-dimethylamino)propyl)amine]
- MIC [1]: > 8 µg/mL
- MIC (S. aureus ATCC 29213 [2]; [4]): > 16 µg/mL
- Fold (MIC of GEN alone/MIC of GEN with Cpd) (S. aureus ATCC 29213 [2]): 4-16 fold

Compound: CN(C)CC(=O)[C@H]1CC[C@H]2[C@@H]3CC[C@H]4C[C@@H](O)CC[C@]4(C)[C@H]3CC[C@]12C [Compound 47, N,N-dimethyl-21-aminopregnanolone]
- MIC [1]: > 8 µg/mL
- MIC (S. aureus ATCC 29213 [2]; [5]): > 16 µg/mL
- Fold (MIC of GEN alone/MIC of GEN with Cpd) (S. aureus ATCC 29213 [2]): 1-2 fold

Compound: [H]/N=C(/N)N[C@H]1[C@H](O)[C@@H](O)[C@H](O[C@@H]2O[C@@H](C)[C@](O)(C=O)[C@H]2O[C@@H]2O[C@@H](CO)[C@H](O)[C@@H](O)[C@@H]2NC)[C@@H](N/C(N)=N\[H])[C@@H]1O [Streptomycin, streptomycin]
- MIC (S. aureus ATCC 29213 [3]; tomatidine 0 μg/ml): 4 to 8 µg/mL
- MIC (S. aureus ATCC 29213 [3]; tomatidine 0.06 μg/ml): 4 µg/mL
- MIC (S. aureus ATCC 29213 [3]; tomatidine 0.12 μg/ml): 2 µg/mL
- MIC (S. aureus ATCC 29213 [3]; tomatidine 0.25 μg/ml): 1 to 2 µg/mL
- MIC (S. aureus ATCC 29213 [3]; tomatidine 0.5 μg/ml): 1 µg/mL
- MIC (S. aureus ATCC 29213 [3]; tomatidine 1 μg/ml): 1 µg/mL
- MIC (S. aureus ATCC 29213 [3]; tomatidine 2 μg/ml): 1 µg/mL
- MIC (S. aureus ATCC 29213 [3]; tomatidine 4 μg/ml): 1 µg/mL
- MIC (S. aureus ATCC 29213 [3]; tomatidine 8 μg/ml): 1 µg/mL
- FIC index (S. aureus ATCC 29213 [3]): ≦0.199
- Fold (−TO/+TO) (S. aureus ATCC 29213 [2]; ATCC 29213): 4-8 fold
- MIC (S. aureus ATCC 29213 [2]; ATCC29213, ATCC 29213, absence of tomatidine, read-out: MIC −TO): 4 to 8 µg/mL (≈ 6.88 to 13.8 µM)
- MIC (S. aureus ATCC 29213 [2]; ATCC29213, ATCC 29213, presence of tomatidine at 8 μg/ml, read-out: MIC +TO): 1 µg/mL
